In US20220380370A1 (Goldfinch Bio, Inc., priority 2019, published 2022):

Target: T1, CB1 receptor (Homo sapiens, UniProt P21554)
T1 construct: Perkin Elmer (CB1-CHO cells); host or cells: Flp-In CHO cells or CB1-CHO cells, stably expressing
Test: CB1 cAMP antagonist assay (LANCE Ultra cAMP kit)
Format: cell-based
Conditions: CHO cells stably expressing the CB1 receptor; forskolin and agonist CP55940 at EC90
Description: LANCE Ultra cAMP kit (Perkin Elmer) was used to quantitate the amount of 3′,5′-cyclic adenosine monophosphate (cAMP) produced in Flp-In CHO cells (Invitrogen) stably expressing the CB1 receptor, CB1-CHO cells (Perkin Elmer) stably expressing the CB1 receptor, or CB2-CHO cells (Perkin Elmer) stably expressing the CB2 receptor.
Forskolin was initially titrated to determine the response of the cells. The EC90 of forskolin was used for compound testing. CP55940 was titrated and used with EC90 of forskolin to determine the level of agonist stimulation. EC90 of the agonist was used for subsequent compound testing. For the CB1 assay, Forskolin (Sigma), CP55940 (Cayman Chemicals), and AM251 (MCE) were diluted in 100% DMSO, starting at 100 mM, 1 mM, and 1 mM respectively, in 3-fold serial dilutions. For the CB2 assay, Forskolin (Sigma), CP55940 (Cayman Chemicals), and AM630 (MCE) were diluted in 100% DMSO, starting at 100 mM, 1 mM, and 30 mM respectively, in 3-fold serial dilutions. Test compounds were diluted in 100% DMSO starting from 10 mM, 3-fold dilutions. The cAMP assay buffer contains 1× Hank's Buffered Saline Solution with Ca^2+ and Mg^2+ (Invitrogen), 5.3 mM HEPES (Invitrogen), 0.05% BSA, 0.5 mM IBMX (Sigma). For all assays, cells were harvested, counted, and diluted in cAMP assay buffer to 1×10^5 cells/mL. Only cells with viability >85% were used for the assay. Cells were seeded at 1000 cells/well in 384-well plates and 10 nL/well AM251 (for CB1), AM630 (for CB2) or test compound was added and incubated at 37° C. for 10 min. Then forskolin and agonist were added to reach their EC90 and incubated at 25° C. for 30 min. To detect the amount of cAMP produced, 5 μL of a 100× diluted stock of Eu-cAMP tracer and 5 μL of 200× diluted stock of Ulight-anti-cAMP were added to each well, and the plate incubated at 25° C. for 15 min. The FRET signal was read using an EnVision microplate reader (λex=320 nm, λem=615 nm and 665 nm). The results are expressed as % Inhibition, where % inhibition=100−100×(U−C2)/(C1−C2), where U is the FRET ratio (λem (665 nm)/λem (615 nm)) of sample, C1 is the average of the high controls (signal with no antagonist added), and C2 is the average of low controls (signal with the highest concentration of AM251 or AM630 antagonist). The IC50 is determined by fitting the percentage of inhibition as a function of compound concentrations with the Hill equation, using a 4-parameter fit in either XLfit or GraphPad Prism.

T1 sequence (P21554 whole entry): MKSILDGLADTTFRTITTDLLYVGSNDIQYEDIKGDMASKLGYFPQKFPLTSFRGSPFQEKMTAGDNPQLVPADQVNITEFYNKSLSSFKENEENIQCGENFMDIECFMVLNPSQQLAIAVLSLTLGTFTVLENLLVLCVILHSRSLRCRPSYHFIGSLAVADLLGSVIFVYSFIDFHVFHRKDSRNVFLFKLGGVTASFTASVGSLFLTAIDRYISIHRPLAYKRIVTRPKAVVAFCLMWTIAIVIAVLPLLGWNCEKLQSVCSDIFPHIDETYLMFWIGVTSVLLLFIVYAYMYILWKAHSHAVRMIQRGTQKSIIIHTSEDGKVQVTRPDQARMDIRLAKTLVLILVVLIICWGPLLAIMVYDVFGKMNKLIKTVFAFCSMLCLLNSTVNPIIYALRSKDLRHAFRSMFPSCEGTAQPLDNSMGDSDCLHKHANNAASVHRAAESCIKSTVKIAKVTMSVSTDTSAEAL

Row | Compound | IC50
1 | NC(=O)Cn1c(=O)c2c(nc(-c3ccccc3Cl)n2-c2ccc(Cl)cc2)n(CC2COCCO2)c1=O (racemic) [Compound 124, 2-[8-(2-chlorophenyl)-7-(4-chlorophenyl)-3-(1,4-dioxan-2-ylmethyl)-2,6-dioxopurin-1-yl]acetamide] | < 100 nM
2 | NC(=O)Cn1c(=O)c2c(nc(-c3ccccc3Cl)n2-c2ccc(Cl)cc2)n(CC2COCCO2)c1=O (stereo in doubt) [Compound 127, 2-[8-(2-chlorophenyl)-7-(4-chlorophenyl)-3-[(2R)-1,4-dioxan-2-ylmethyl]-2,6-dioxopurin-1-yl]acetamide] | 100 to 1000 nM
3 | NC(=O)Cn1c(=O)c2c(nc(-c3ccccc3Cl)n2-c2ccc(Cl)cc2)n(CC2COCCO2)c1=O (stereo in doubt) [Compound 128, 2-[8-(2-chlorophenyl)-7-(4-chlorophenyl)-3-[(2S)-1,4-dioxan-2-ylmethyl]-2,6-dioxopurin-1-yl]acetamide] | 100 to 1000 nM
4 | CC(c1ccc(C(=O)NCCO)cc1)n1c(=O)n(C)c(=O)c2c1nc(-c1ccccc1Cl)n2-c1ccc(Cl)cc1 (stereo in doubt) [Compound 134, 4-[(1R)-1-[8-(2-chlorophenyl)-7-(4-chlorophenyl)-1-methyl-2,6-dioxopurin-3-yl]ethyl]-N-(2-hydroxyethyl)benzamide] | 100 to 1000 nM
5 | CC(C(N)=O)n1c(=O)c2c(nc(-c3ccccc3Cl)n2-c2ccc(Cl)cc2)n(C2CCOCC2)c1=O (stereo in doubt) [Compound 138, (2R)-2-[8-(2-chlorophenyl)-7-(4-chlorophenyl)-3-(oxan-4-yl)-2,6-dioxopurin-1-yl]propanamide] | 100 to 1000 nM
6 | CC(C(N)=O)n1c(=O)c2c(nc(-c3ccccc3Cl)n2-c2ccc(Cl)cc2)n(CC2CCOCC2)c1=O (stereo in doubt) [Compound 140, (2S)-2-[8-(2-chlorophenyl)-7-(4-chlorophenyl)-3-(oxan-4-ylmethyl)-2,6-dioxopurin-1-yl]propanamide] | < 100 nM
7 | CC(C(N)=O)n1c(=O)c2c(nc(-c3ccccc3Cl)n2-c2ccc(Cl)cc2)n(CC2CCS(=O)(=O)CC2)c1=O (stereo in doubt) [Compound 142, (2S)-2-[8-(2-chlorophenyl)-7-(4-chlorophenyl)-3-[(1,1-dioxo-1 lambda6-thian-4-yl)methyl]-2,6-dioxopurin-1-yl]propanamide] | < 100 nM
8 | CC(C(N)=O)n1c(=O)c2c(nc(-c3ccccc3Cl)n2-c2ccc(Cl)cc2)n(CC2CCS(=O)(=O)CC2)c1=O (stereo in doubt) [Compound 144, (2R)-2-[8-(2-chlorophenyl)-7-(4-chlorophenyl)-3-[(1,1-dioxo-1 lambda6-thian-4-yl)methyl]-2,6-dioxopurin-1-yl]propanamide] | < 100 nM
9 | NC(=O)Cn1c(=O)c2c(nc(-c3ccccc3Cl)n2-c2ccc(Cl)cc2)n(Cc2ccc(CC(O)CO)cc2)c1=O (stereo in doubt) [Compound 146, 2-[8-(2-chlorophenyl)-7-(4-chlorophenyl)-3-([4-[(2S)-2,3-dihydroxypropyl]phenyl]methyl)-2,6-dioxopurin-1-yl]acetamide] | 100 to 1000 nM
10 | NC(=O)Cn1c(=O)c2c(nc(-c3ccccc3Cl)n2-c2ccc(Cl)cc2)n(Cc2ccc(CC(O)CO)cc2)c1=O (stereo in doubt) [Compound 148, 2-[8-(2-chlorophenyl)-7-(4-chlorophenyl)-3-([4-[(2R)-2,3-dihydroxypropyl]phenyl]methyl)-2,6-dioxopurin-1-yl]acetamide] | 100 to 1000 nM
11 | CC(C)(C)C(=O)OCn1c(=O)c2c(nc(-c3ccccc3Cl)n2-c2ccc(Cl)cc2)n(C2CCCCC2)c1=O [Compound 102] | < 100 nM
12 | CC(=O)N1CCC(Cn2c(=O)n(C)c(=O)c3c2nc(-c2ccccc2Cl)n3-c2ccc(Cl)cc2)CC1 [Compound 107, 3-[(1-acetylpiperidin-4-yl)methyl]-8-(2-chlorophenyl)-7-(4-chlorophenyl)-1-methylpurine-2,6-dione] | < 100 nM
13 | COC(=O)c1ccc(Cn2c(=O)n(C)c(=O)c3c2nc(-c2ccccc2Cl)n3-c2ccc(Cl)cc2)cc1 [Compound 108] | < 100 nM
14 | Cn1c(=O)c2c(nc(-c3ccccc3Cl)n2-c2ccc(Cl)cc2)n(Cc2ccc(Cl)cc2)c1=O [Compound 109, 8-(2-chlorophenyl)-7-(4-chlorophenyl)-3-[(4-chlorophenyl)methyl]-1-methyl-2,3,6,7-tetrahydro-1H-purine-2,6-dione] | < 100 nM
15 | Cn1c(=O)c2c(nc(-c3ccccc3Cl)n2-c2ccc(Cl)cc2)n(CC2CCCCC2)c1=O [Compound 110, 8-(2-chlorophenyl)-7-(4-chlorophenyl)-3-(cyclohexylmethyl)-1-methyl-2,3,6,7-tetrahydro-1H-purine-2,6-dione] | < 100 nM
16 | Cn1c(=O)c2c(nc(-c3ccccc3Cl)n2-c2ccc(Cl)cc2)n(Cc2ccc(C(=O)O)cc2)c1=O [Compound 111, 4-[[8-(2-chlorophenyl)-7-(4-chlorophenyl)-1-methyl-2,6-dioxo-2,3,6,7-tetrahydro-1H-purin-3-yl]methyl]benzoic acid] | 1000 to 5000 nM
17 | Cn1c(=O)c2c(nc(-c3ccccc3Cl)n2-c2ccc(Cl)cc2)n(CC2CCN(C[C@H](O)CO)CC2)c1=O [Compound 113, 8-(2-chlorophenyl)-7-(4-chlorophenyl)-3-([1-[(2S)-2,3-dihydroxypropyl]piperidin-4-yl]methyl)-1-methyl-2,3,6,7-tetrahydro-1H-purine-2,6-dione] | ≥ 5000 nM
18 | Cn1c(=O)c2c(nc(-c3ccccc3Cl)n2-c2ccc(Cl)cc2)n(CC2CCN(CC(N)=O)CC2)c1=O [Compound 115, 2-(4-[[8-(2-chlorophenyl)-7-(4-chlorophenyl)-1-methyl-2,6-dioxo-2,3,6,7-tetrahydro-1H-purin-3-yl]methyl]piperidin-1-yl)acetamide] | 100 to 1000 nM
19 | CN1CCC(Cn2c(=O)n(C)c(=O)c3c2nc(-c2ccccc2Cl)n3-c2ccc(Cl)cc2)CC1 [Compound 116, 8-(2-chlorophenyl)-7-(4-chlorophenyl)-1-methyl-3-[(1-methylpiperidin-4-yl)methyl]-2,3,6,7-tetrahydro-1H-purine-2,6-dione] | ≥ 5000 nM
20 | NC(=O)Cn1c(=O)c2c(nc(-c3ccccc3Cl)n2-c2ccc(Cl)cc2)n(CC2CCN(CCO)CC2)c1=O [Compound 117] | ≥ 5000 nM
21 | CN1CCN(Cc2ccc(Cn3c(=O)n(CC(N)=O)c(=O)c4c3nc(-c3ccccc3Cl)n4-c3ccc(Cl)cc3)cc2)CC1 [Compound 118] | 1000 to 5000 nM
22 | O=c1[nH]c(=O)n(Cc2ccc(Cl)cc2)c2nc(-c3ccccc3Cl)n(-c3ccc(Cl)cc3)c12 [Compound 119, 8-(2-chlorophenyl)-7-(4-chlorophenyl)-3-[(4-chlorophenyl)methyl]-2,3,6,7-tetrahydro-1H-purine-2,6-dione] | < 100 nM
23 | CN(CCO)Cc1ccc(Cn2c(=O)n(C)c(=O)c3c2nc(-c2ccccc2Cl)n3-c2ccc(Cl)cc2)cc1 [Compound 120] | 100 to 1000 nM
24 | NC(=O)Cn1c(=O)c2c(nc(-c3ccccc3Cl)n2-c2ccc(Cl)cc2)n(Cc2ccc(CN3CCOCC3)cc2)c1=O [Compound 121, 2-[8-(2-chlorophenyl)-7-(4-chlorophenyl)-3-([4-[(morpholin-4-yl)methyl]phenyl]methyl)-2,6-dioxo-2,3,6,7-tetrahydro-1H-purin-1-yl]acetamide] | < 100 nM
25 | COCCOCc1ccc(Cn2c(=O)n(C)c(=O)c3c2nc(-c2ccccc2Cl)n3-c2ccc(Cl)cc2)cc1 [Compound 122, 8-(2-chlorophenyl)-7-(4-chlorophenyl)-3-([4-[(2-methoxyethoxy)methyl]phenyl]methyl)-1-methylpurine-2,6-dione] | < 100 nM
26 | CC(=O)N1CCC(Cn2c(=O)n(CC(N)=O)c(=O)c3c2nc(-c2ccccc2Cl)n3-c2ccc(Cl)cc2)CC1 [Compound 123, 2-[3-[(1-acetylpiperidin-4-yl)methyl]-8-(2-chlorophenyl)-7-(4-chlorophenyl)-2,6-dioxopurin-1-yl]acetamide] | 100 to 1000 nM
27 | CN(CCO)C(=O)c1ccc(Cn2c(=O)n(C)c(=O)c3c2nc(-c2ccccc2Cl)n3-c2ccc(Cl)cc2)cc1 [Compound 126] | 100 to 1000 nM
28 | CC(=O)N1CCC(Cn2c(=O)n(C(C)C(N)=O)c(=O)c3c2nc(-c2ccccc2Cl)n3-c2ccc(Cl)cc2)CC1 (stereo not shown) [Compound 129, 2-[3-[(1-acetylpiperidin-4-yl)methyl]-8-(2-chlorophenyl)-7-(4-chlorophenyl)-2,6-dioxopurin-1-yl]propanamide] | 100 to 1000 nM
